Source: US8518965B2, “Compositions and methods for treating cancer” (Trustees of Dartmouth College, priority 2009, dated 2013)

Experiments:
[1] = test system: HCT116 human colon cancer cells; assay: Colony formation assay, HCT116 cells; type: cell-based
Method: (§1) NCI/ADR-RES human breast cancer cells (500 cells), HCT116 human colon cancer cells (400 cells) or SF 295 human glioblastoma cells (1000 cells) were plated in 60 mm Petri dishes containing 2.7 ml of medium (modified McCoy's 5a medium containing 10% fetal bovine serum and 100 units/ml penicillin and 100 μg/ml streptomycin). The cells were incubated in a CO2 incubator at 37° C. for 5 hours for attachment to the bottom of Petri dishes. Compounds were prepared fresh in medium at ten times the final concentration, and then 0.3 ml of this stock solution was added to the 2.7 ml of medium in the dish. The cells were then incubated with compounds for 72 hours at 37° C. At the end of incubation, the compound-containing media were decanted, the dishes were rinsed with 4 ml of Hank's Balance Salt Solution (HBSS), 5 ml of fresh medium was added, and the dishes were returned to the incubator for colony formation. The cell colonies were counted using a colony counter after incubation for 14 days for NCI/ADR-RES cells and 10 days for HCT116 cells and SF 295 cells. Cell survival was calculated and the IC50 values (the drug concentration producing 50% inhibition of colony formation) were determined for each tested compound.
Four hundred HCT116 cells were plated in 60 mm Petri dishes containing 2.7 ml of medium (modified McCoy's 5a medium containing 10% fetal bovine serum and 100 units/ml penicillin and 100 μg/ml streptomycin). The cells were incubated in a CO2 incubator at 37° C. for 5 hours for attachment to the bottom of Petri dishes. Compounds were prepared fresh in medium at ten times the final concentration, and then 0.3 ml of this stock solution was added to the 2.7 ml of medium in the dish. The cells were then incubated with drugs for 72 hours at 37° C. At the end of incubation the compound-containing media were decanted, the dishes were rinsed with 4 ml of Hank's Balance Salt Solution (HBSS), 5 ml of fresh medium was added, and the dishes were returned to the incubator for colony formation. HCT116 cell colonies were counted using a colony counter after […] of incubation. Cell survival was calculated and IC50 values were determined for each compound tested.

[2] = test system: NCI/ADR-RES human breast cancer cells; assay: Colony formation assay, NCI/ADR-RES cells; type: cell-based; details: 72 hours with compound, colonies counted after 14 days
Method: as §1

[3] = test system: HCT116 human colon cancer xenografts; assay: In vivo efficacy, HCT116 xenografts in nude mice; design: species or system nude mice (nu/nu genotype); details: single i.p. injection
Method: This in vivo anticancer efficacy study was performed on nude mice (nu/nu genotype) bearing HCT116 human colon cancer xenografts. These human tumors grew exponentially following implantation into the flanks of the mice and reached a diameter of 3 mm. Treatment was initiated at that time, with the first day of treatment designated as day 0 for all calculations and plots. […] Mice in the control group, bearing 3 mm diameter tumors, were treated with vehicle alone. After treatment, tumor sizes were measured by caliper every day. Daily measurement of the tumor diameters (d1, d2) in two orthogonal directions was used to calculate the tumor volume (tumor volume=π/6{(d1+d2)/2}^3) using the approximation that the tumors were spherical. The values of time (days) required to grow the tumor to the size of 1,000 cu. mm after various treatments and tumor growth delay percentage were calculated for evaluating the treatment effects. Survival times and tumor inhibitory effects on day 20 after treatment were also observed and recorded.

[4] = test system: SF 295 human glioblastoma xenografts; assay: In vivo efficacy, SF 295 xenografts in nude mice; details: D11B 382 mg/kg single i.p. injection
Method: In vivo anticancer efficacy studies were performed on nude mice (nu/nu genotype) bearing SF 295 human glioblastoma xenografts. […]. Treatment was initiated at that time, with the first day of treatment designated as day 0 for all calculations and plots. […] Compound doses were 382 mg/kg for D11B, 212 mg/kg for D15B, 5 mg/kg for D25B, and 10.6 mg/kg for D35B. Mice in the control group bearing 3 mm diameter tumors was treated with vehicle alone. After treatment, tumor sizes were measured by caliper every day. Daily measurements of the tumor diameters (d1, d2) in two orthogonal directions was used to calculate the tumor volume (tumor volume=π/6{(d1+d2)/2}^3) using the approximation that the tumors were spherical. The values of time (days) required to grow the tumor to twice their initial size after various treatments was calculated as tumor doubling time (TDT) for evaluating the treatment effects. Survival times and curative effects after treatment were also observed and recorded.

[5] = test system: SF 295 human glioblastoma cells; assay: Colony formation assay, SF 295 cells; type: cell-based
Method: as §1
One thousand SF 295 cells were plated in 60 mm Petri dishes containing 2.7 ml of medium (modified McCoy's 5a medium containing 10% fetal bovine serum and 100 units/ml penicillin and 100 μg/ml streptomycin). The cells were incubated in a CO2 incubator at 37° C. for 5 hours for attachment to the bottom of Petri dishes. Compounds were prepared fresh in medium at ten times the final concentration, and then 0.3 ml of this stock solution was added to the 2.7 ml of medium in the dish. The cells were then incubated with the compounds for 72 hours at 37° C. At the end of incubation, the compound-containing media were decanted, the dishes were rinsed with 4 ml of Hank's Balance Salt Solution (HBSS), 5 ml of fresh medium was added, and the dishes were returned to the incubator for colony formation. After incubation for 10 days, the cell colonies were counted using a colony counter. Cell survival was calculated and the values of IC50 were determined for each compound tested.

## c1ccc2c(Nc3ccc(Oc4ccc(Nc5c6ccccc6nc6ccccc56)cc4)cc3)c3ccccc3nc2c1 [Compound D11B]
[1]; Homo sapiens, HCT-116, HCT116 cells, 72 hours with compound, colonies counted after 10 days, read-out: IC50 (nM) Colon Cancer
  IC50: 167 nM
[1]; colon vs breast cancer cells
  IC50 values lower for colon cells as compared to breast cancer cells: approximately 10 fold
[2]
  IC50: 1310 nM
[3]; control group 19.7 days
  Mean survival time: 40.5 days
[3]; time for growth up to the tumor volume of 1,000 cu. mm
  Tumor growth delay percentage: 131%
[3]; tumor growth on day 20 after drug administration
  Inhibition ratio: 4.65
[4]
  Curative effect: one mouse was even cured
  Ratio of TDTs (D11B treated over control): 9.8
[4]; control group 2.5 days
  TDT (tumor doubling time): 24.5 days
[4]; control group 40.5 days
  Mean survival time: ≥ 58.67 days
[5]; Homo sapiens, SF 295 cells, 72 hours with compound, colonies counted after 10 days, read-out: IC50 (nM) Glioblastoma
  IC50: 177 nM
[5]; glioblastoma vs breast cancer cells
  IC50 values lower for glioblastoma cells as compared to breast cancer cells: approximately 10 fold
